Reference: PMC11583740, “Genotype-specific effects of elamipretide in patients with primary mitochondrial myopathy: a post hoc analysis of the MMPOWER-3 trial” (Orphanet Journal of Rare Diseases, 2024)

How the values were obtained:
[1] = system: adult patients with primary mitochondrial myopathy (PMM); settings: elamipretide 40 mg s.c. once daily; nDNA cohort n = 59; placebo 0.3 m; p = 0.03; previously published post-hoc analysis; cited from earlier work
Source text: Baseline functional characteristics of these patients is described elsewhere. At week 24, subjects in ...

[2] = system: adult patients with primary mitochondrial myopathy (PMM); assay: Six-Minute Walk Test (6MWT) in the MMPOWER-3 Phase 3 trial, post hoc analysis by genotype; format: in vivo, human
Procedure: Full details of MMPOWER-3 have been previously described. In brief, MMPOWER-3 was a 24-week, randomized (1:1), double-blind, parallel-group, placebo-controlled clinical trial for adult patients with PMM, in which subjects received elamipretide 40 mg subcutaneously once daily or placebo [6]. In the original analysis of MMPOWER-3, subjects were stratified by the type of pathogenic DNA variant (nDNA vs mtDNA) determined to be the primary cause of PMM as approved by the adjudication committee. Pathogenic DNA variants causing PMM were subclassified as causing mtDNA or nDNA disorders. The prespecified exploratory analysis was conducted to further examine the effects of elamipretide on the change from baseline to week 24 in the 6MWT by genetic subgroups. Subject demographics at baseline have been previously published in detail.
In the original analysis of MMPOWER-3, the efficacy of elamipretide was analyzed by genetic pathogenic variant subclass (mtDNA vs. nDNA) utilizing a mixed model repeated measures (MMRM). In the new exploratory analysis, the effect of elamipretide on the least squares (LS) mean change from baseline in distance walked on the 6MWT at 4 weeks, 12 weeks, and end of treatment (week 24) was examined as a function of gene variants using subjects from the MMPOWER-3 per-protocol population who successfully completed the trial. The analysis evaluated 6MWT results by specific mtDNA and nDNA genotypes. Efficacy in the mtDNA replisome subgroup was further assessed by the presence of the chronic progressive external ophthalmoplegia (CPEO) as a phenotype.

[3] = system: adult patients with primary mitochondrial myopathy (PMM); settings: post-hoc genetic subgroup analysis of the co-primary endpoint; previously published; cited from earlier work
Procedure: Elamipretide is the first experimental therapeutic compound progressing to a Phase 3 clinical trial in patients with PMM (MMPOWER-3). This trial followed the Phase 1/2 (MMPOWER-1) and Phase 2 (MMPOWER-2) clinical trials, in which treatment with elamipretide was analyzed in patients with PMM.

[4] = system: subjects with Barth Syndrome; settings: after approximately 36 weeks in the 168-week open-label phase; n = 8; p = 0.02; cited from earlier work
Source text: NuPOWER was designed to evaluate the efficacy and tolerability of elamipretide in nPMD subjects, with the primary efficacy endpoint being distance walked (meters) on the 6MWT [11]. Elamipretide was also studied in subjects with Barth Syndrome (TAZPOWER, SPIBA-201, NCT03098797), which ...

Substance: elamipretide
- 6MWT improvement, nDNA cohort [1]: 25.2 m
- 6MWT change from baseline, MT-TL1 pathogenic variants ([2]; elamipretide 40 mg s.c. once daily, 24 weeks, n = 21, placebo (n = 28) 42.4 m): 25.3 m
- 6MWT improvement (change from baseline), mtDNA replisome post-hoc cohort ([2]; elamipretide 40 mg s.c. once daily, mtDNA replisome cohort, placebo 2.0 ± 8.6 m, p = 0.06): 25.2 ± 8.7 m
- LS mean (SE) change from baseline in 6MWT, replisome variants with CPEO phenotype ([2]; elamipretide 40 mg s.c. once daily, week 24, n = 18, baseline mean 316.5 ± 17.5, placebo (n = 14) −8.0 ± 10.7 m, p = 0.0024): 37.3 ± 9.5 m
- LS mean (SE) change from baseline in distance walked on 6MWT, mtDNA pathogenic variants ([2]; elamipretide 40 mg s.c. once daily, week 24, n = 73, placebo (n = 73) 24.1 ± 6.3 m): 14.9 ± 6.4 m
- Between-group difference in 6MWT change, mtDNA pathogenic variants ([2]; week 24, elamipretide vs placebo, difference in favor of placebo): 9.2 m
- 6MWT difference elamipretide vs placebo, single mtDNA deletions ([2]; week 24, n = 49): no observable differences
- PMMSA TFS, nDNA cohort compared with mtDNA cohort [3]: did not demonstrate a differential effect
- Improvement in 6MWT, Barth Syndrome [4]: 95.9 m
